Results reported in patent US9539260B2, “Dihydro-benzo-oxazine and dihydro-pyrido-oxazine derivatives” (Novartis AG, priority 2012, dated 2017).

Assays:
[1] = test system: rat B cells derived from whole blood; assay: Determination of rat B cell activation in whole blood (CD86 upregulation after anti-IgM and rIL-4); assay type: cell-based; settings: anti-IgM + rIL-4 stimulation, CD86 on CD45RA+ B cells, read-out: RWB/IC50 CD86
Protocol: 2.3 Determination of Rat B Cell Activation
PI3Kδ has been recognized to modulate B cell function when cells are stimulated through the B cell receptor (BCR) (Okkenhaug et al. Science 297:1031 (2002). For assessing the inhibitory property of compounds on B cell activation, the upregulation of activation markers CD86 on rat B cells derived from whole blood is measured after stimulation with anti-IgM and recombinant IL-4. The CD86 molecule (also known as B7-2) is primarily expressed on antigen-presenting cells, including B cells. Resting B cells express CD86 at low levels, but upregulate it following stimulation of e.g. the BCR or IL-4 receptor. CD86 on a B cell interacts with CD28 on T cells. This interaction is required for optimal T cell activation and for the generation of an optimal IgG1 response (Carreno et al. Annu Rev Immunol. 20:29 (2002)).
Whole blood was collected from the abdominal aorta adult male Lewis rats (LEW/HanHsd) oby using a 10 ml syringe with hypodermic needle pre-coated with sodium heparin. Blood was transferred into 50 ml Falcon tubes and the anticoagulant concentration was adjusted to 100 U/ml.
For assessment of the in vitro effects of immunosuppressive drugs, heparinized blood was prediluted to 50% with medium. As medium served DMEM high glucose (Animed cat#1-26F01-I) supplemented with 100 U/ml penicillin, […], 2 mM L-glutamin, 50 mg/ml dextran 40 and 5% fetal calf serum (FCS, Fetaclone I, Gibco #10270-106). Then, 190 μl prediluted blood was spiked with 10 μl of pre-diluted test compound in 96 well U-bottomed microtiter plates (Nunc) resulting in a 3-fold serial dilution with a concentration range from 20 to 0.0003 μM. Control wells were pretreated with DMSO to obtain a final concentration of 0.5% DMSO. Cultures were set up in duplicates, mixed well by agitation on a plate shaker (Heidolph Titramax 101; 30 sec, speed 900), pipetting up and down and agitated on the plate shaker again. Cultures were incubated at 37° C., 5% CO2 for 1 hr. Then, 20 μl of polyclonal goat anti-rat IgM Ab (Serotec, cat#302001) and 10 μl of diluted recombinant rIL-4 (Immunotools #340085) were added to obtain final concentrations of 30 μg/ml and 5 ng/ml, respectively. Plates were mixed by agitation on a plate shaker as above and incubated for 24 hrs at 37° C., 5% CO2.
After incubation, 15 μl of a 25 mM EDTA solution was added per well and shaken for 15 min to detach adherent cells. For analysis of surface activation markers, samples were then stained with PE-Cy5-labeled anti-ratCD45RA (BD cat#557015) to allow gating on B cells in FACS analysis. In addition, samples were stained with PE-labeled anti-rat CD86 (BD cat#551396). All staining procedures were performed at rt for 30 min in the dark. After incubation, samples were transferred to 96-deep well V-bottomed microtiter plates (Corning #396096) containing 2 ml/well of BD Lysing Solution (BD #349202). After lysis of erythrocytes samples were washed with 2 ml of CellWASH (BD #349524). Data was acquired on an LSRII or FACScalibur flow cytometer (BD Biosciences) using Cellquest Plus or DIVA (version 6.1.1) software, respectively. Lymphocytes were gated in the FSC/SSC dot blot according to size and granularity and further analyzed for expression of CD45RA and activation markers. Data were calculated from dot blots or histograms as percentage of cells positively stained for activation markers within the CD45RA+ population.
The percentage inhibition of B cell activation after exposure to drug was calculated by the following formula: […]
ORIGIN 7 software (OriginLab Corporation, Northampton, Mass.) was used for non-linear regression curve fitting.

[2] = target: PI3K alpha (Homo sapiens (Human), UniProt P42336); assay: Enzymatic PI3K alpha isoform inhibition (lipid kinase activity, Kinase-Glo luminescence); assay type: biochemical; settings: Enzymatic assay
In short: (§1)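 IC50s derive from 4-parameter logistic fits of % inhibition across 8 concentrations (usually 10 to 0.003 μM). Lipid kinase reaction: PI3K (10 nM) plus phosphatidylinositol (5 μg/mL) started with 2 μM ATP, stopped near 50% ATP depletion; leftover ATP quantified by Kinase-Glo luminescence.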

[3] = target: myristoylated catalytic subunit of human PI3K delta in Rat-1 cells (Homo sapiens (Human), UniProt O00329); assay: PI3K-mediated Akt 1/2 (S473) phosphorylation in Rat-1 cells, PI3K delta; assay type: cell-based; settings: Rat-1 cells overexpressing myristoylated human PI3K delta; p-Akt (S473) AlphaScreen SureFire; read-out: Cell PI3Kδ/ IC50
Protocol: 2.1 Phosphoinositide-3 Kinase (PI3K)-Mediated Akt 1/2 (S473) Phosphorylation in Rat-1 Cells
Rat-1 cells stably overexpressing a myristoylated form of the catalytic subunit of human phosphoinositide-3 kinase (PI3K) alpha, beta or delta were plated in 384-well plates at a density of 7500 (PI3K alpha), 6200 (PI3K beta), or 4000 (PI3K delta) cells in 30 ul complete growth medium (Dulbecco's modified Eagle's medium (DMEM high glucose) supplemented with 10% (v/v) fetal bovine serum, 1% (v/v) MEM non essential amino acids, 10 mM HEPES, 2 mM L-glutamine, 10 μg/mL puromycin and 1% (v/v) Penicillin/Streptomycin) and were incubated at […]/5% CO2/95% humidity for 24 h. Compounds were diluted in 384-well compound plates to obtain 8-point serial dilutions for 40 test compounds in 90% DMSO, as well as 4 reference compounds plus 16 high controls and 16 low (inhibited) controls. Predilution plates were prepared by dispensing pipetting 250 nl of compound solutions into 384-well polypropylen plates using a Hummingwell nanoliter dispensor. Compounds were prediluted by the addition of 49.75 ul complete growth medium. 10 ul of prediluted compound solution were transferred to the cell plate using a 384-well pipettor, resulting in a final DMSO concentration of 0.11%.
Cells were incubated for 1 h at […]/5% CO2/95% humidity. The supernatant was removed, the cells were lysed in 20 ul of lysis buffer for AlphaScreen® SureFire® detection.
For detection of p-AKT(Ser473), the SureFire® p-Akt 1/2 (Ser473) Assay Kit (PerkinElmer, U.S.A) was used. 5 ul of cell lysate was transferred to 384-well low volume Proxiplates for detection using a 384-well pipettor. Addition of AlphaScreen® SureFire® reagents was done according to the manufacturer's protocol. First, 5 ul of reaction buffer plus activation buffer mix containing AlphaScreen® acceptor beads was added, the plate was sealed, and incubated on a plate shaker for 2 hours at room temperature. Second, 2 ul of dilution buffer containing AlphaScreen® donor beads was added, and the plate was incubated on plate shaker as above for a further 2 hours. The plate was read on an AlphaScreen® compatible plate reader, using standard AlphaScreen® settings.

[4] = target: PI3K delta (Homo sapiens (Human), UniProt O00329); assay: Enzymatic PI3K delta isoform inhibition (lipid kinase activity, Kinase-Glo luminescence); assay type: biochemical; settings: Enzymatic assay
In short: as §1

PI3K delta, sequence (O00329 other isoform, or with tags, fused parts or gaps linker GGGGGG): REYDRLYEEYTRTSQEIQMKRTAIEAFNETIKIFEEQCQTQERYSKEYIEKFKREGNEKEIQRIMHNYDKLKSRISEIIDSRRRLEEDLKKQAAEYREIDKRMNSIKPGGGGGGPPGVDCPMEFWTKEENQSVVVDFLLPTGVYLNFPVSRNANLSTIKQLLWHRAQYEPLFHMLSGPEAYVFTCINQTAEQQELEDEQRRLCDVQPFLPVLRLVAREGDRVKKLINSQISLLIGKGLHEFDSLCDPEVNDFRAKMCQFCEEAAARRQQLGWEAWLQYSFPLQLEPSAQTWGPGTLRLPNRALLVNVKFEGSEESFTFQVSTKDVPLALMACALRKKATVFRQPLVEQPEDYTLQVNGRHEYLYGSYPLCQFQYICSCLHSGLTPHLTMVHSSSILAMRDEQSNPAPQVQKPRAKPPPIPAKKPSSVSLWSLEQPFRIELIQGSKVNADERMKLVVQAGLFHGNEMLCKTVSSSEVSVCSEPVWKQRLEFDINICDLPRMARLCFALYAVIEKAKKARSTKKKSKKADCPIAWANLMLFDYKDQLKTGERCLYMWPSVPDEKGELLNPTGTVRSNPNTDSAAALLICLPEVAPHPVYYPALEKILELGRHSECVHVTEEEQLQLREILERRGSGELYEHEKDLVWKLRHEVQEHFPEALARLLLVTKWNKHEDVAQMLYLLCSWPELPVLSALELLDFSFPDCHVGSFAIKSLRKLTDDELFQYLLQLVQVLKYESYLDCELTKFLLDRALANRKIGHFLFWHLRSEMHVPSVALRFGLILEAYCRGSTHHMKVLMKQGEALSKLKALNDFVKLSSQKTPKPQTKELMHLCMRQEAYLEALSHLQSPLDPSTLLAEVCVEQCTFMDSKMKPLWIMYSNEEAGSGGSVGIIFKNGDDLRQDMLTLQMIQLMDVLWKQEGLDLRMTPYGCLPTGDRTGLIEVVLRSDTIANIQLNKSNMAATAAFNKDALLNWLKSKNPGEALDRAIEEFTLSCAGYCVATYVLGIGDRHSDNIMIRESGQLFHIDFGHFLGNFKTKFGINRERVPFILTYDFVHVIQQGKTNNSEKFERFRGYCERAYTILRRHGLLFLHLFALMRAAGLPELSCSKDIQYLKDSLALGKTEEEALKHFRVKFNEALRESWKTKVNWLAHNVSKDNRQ
myristoylated catalytic subunit of human PI3K delta in Rat-1 cells, sequence (O00329 whole entry): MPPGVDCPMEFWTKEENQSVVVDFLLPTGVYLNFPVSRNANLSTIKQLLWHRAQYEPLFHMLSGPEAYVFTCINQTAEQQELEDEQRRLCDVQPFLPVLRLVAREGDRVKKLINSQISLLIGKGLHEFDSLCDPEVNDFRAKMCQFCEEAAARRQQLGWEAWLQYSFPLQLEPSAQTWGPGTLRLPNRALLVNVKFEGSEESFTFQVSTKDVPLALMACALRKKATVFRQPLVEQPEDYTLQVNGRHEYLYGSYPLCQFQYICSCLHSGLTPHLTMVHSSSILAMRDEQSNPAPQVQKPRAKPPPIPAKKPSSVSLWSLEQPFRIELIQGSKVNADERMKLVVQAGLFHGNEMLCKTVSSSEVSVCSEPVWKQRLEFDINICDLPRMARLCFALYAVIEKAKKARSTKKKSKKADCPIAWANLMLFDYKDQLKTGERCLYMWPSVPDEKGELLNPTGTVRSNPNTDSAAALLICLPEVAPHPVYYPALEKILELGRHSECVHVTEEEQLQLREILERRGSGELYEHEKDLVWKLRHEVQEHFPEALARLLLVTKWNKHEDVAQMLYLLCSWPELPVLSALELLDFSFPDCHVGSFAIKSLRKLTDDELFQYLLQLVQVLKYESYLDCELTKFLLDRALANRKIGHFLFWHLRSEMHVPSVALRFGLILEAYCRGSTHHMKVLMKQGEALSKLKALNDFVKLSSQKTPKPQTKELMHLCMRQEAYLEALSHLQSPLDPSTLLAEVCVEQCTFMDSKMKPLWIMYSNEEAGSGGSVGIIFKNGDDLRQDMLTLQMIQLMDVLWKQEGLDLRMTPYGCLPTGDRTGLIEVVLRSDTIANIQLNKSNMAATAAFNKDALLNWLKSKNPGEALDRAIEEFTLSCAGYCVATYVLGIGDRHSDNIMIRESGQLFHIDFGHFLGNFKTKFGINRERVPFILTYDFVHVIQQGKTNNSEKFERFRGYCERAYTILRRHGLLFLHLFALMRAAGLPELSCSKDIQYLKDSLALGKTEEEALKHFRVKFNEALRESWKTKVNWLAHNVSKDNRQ
PI3K alpha, sequence (P42336 other isoform, or with tags, fused parts or gaps): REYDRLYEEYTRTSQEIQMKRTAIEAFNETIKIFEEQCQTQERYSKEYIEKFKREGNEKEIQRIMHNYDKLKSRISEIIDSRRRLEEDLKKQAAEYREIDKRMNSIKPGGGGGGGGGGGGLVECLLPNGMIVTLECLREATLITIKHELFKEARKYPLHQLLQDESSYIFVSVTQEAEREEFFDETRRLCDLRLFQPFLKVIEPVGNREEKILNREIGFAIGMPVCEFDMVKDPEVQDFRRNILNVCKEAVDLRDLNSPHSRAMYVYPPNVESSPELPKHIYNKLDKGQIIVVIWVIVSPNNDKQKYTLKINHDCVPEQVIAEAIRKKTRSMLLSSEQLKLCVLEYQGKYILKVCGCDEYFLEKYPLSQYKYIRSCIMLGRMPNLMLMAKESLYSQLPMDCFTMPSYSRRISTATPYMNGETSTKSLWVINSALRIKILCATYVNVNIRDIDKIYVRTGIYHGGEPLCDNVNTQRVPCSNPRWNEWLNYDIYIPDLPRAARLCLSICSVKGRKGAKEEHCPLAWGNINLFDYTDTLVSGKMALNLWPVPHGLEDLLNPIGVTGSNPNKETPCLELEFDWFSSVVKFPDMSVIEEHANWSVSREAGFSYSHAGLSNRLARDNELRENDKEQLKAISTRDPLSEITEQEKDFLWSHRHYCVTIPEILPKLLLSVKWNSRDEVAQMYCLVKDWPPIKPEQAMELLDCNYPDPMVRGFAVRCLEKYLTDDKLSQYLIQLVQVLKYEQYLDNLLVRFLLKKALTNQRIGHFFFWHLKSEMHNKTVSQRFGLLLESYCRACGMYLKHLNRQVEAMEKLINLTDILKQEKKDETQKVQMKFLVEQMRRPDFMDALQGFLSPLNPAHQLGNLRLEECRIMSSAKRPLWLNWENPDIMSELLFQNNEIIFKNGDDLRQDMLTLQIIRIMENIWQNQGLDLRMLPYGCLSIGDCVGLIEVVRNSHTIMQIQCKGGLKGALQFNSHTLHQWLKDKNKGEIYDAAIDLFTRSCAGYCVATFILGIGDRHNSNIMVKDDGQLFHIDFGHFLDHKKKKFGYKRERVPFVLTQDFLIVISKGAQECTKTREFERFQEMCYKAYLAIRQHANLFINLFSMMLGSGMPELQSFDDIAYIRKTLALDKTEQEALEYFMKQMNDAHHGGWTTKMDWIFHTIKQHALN

IC50 [1] [nM] | IC50 [2] [nM] | IC50 [3] [nM] | IC50 [4] [nM] | Compound
37 | 322 | 43 | 6 | COc1ncc(N2CCOc3ccc(O[C@H]4CCN(C(=O)C5CCOCC5)C4)cc32)cc1C [Example A1, (S)-(3-((4-(6-methoxy-5-methylpyridin-3-yl)-3,4-dihydro-2H-benzo[b][1,4]oxazin-6-yl)oxy)pyrrolidin-1-yl)(tetrahydro-2H-pyran-4-yl)methanone]
84 | – | 147 | 5 | COc1ncc(N2CCOc3ccc(O[C@H]4CCN(C(=O)c5cn(C)cn5)C4)cc32)cc1C#N [Example D1, (S)-2-methoxy-5-(6-((1-(1-methyl-1H-imidazole-4-carbonyl)pyrrolidin-3-yl)oxy)-2H-benzo[b][1,4]oxazin-4(3H)-yl)nicotinonitrile]
7 | – | – | – | COc1ncc(N2CCOc3cnc(O[C@H]4CCN(C(=O)C5CCS(=O)(=O)CC5)C4)cc32)cc1C [Example F1, (1,1-Dioxo-hexahydro-1lambda*6*-thiopyran-4-yl)-{(S)-3-[1-(6-methoxy-5-methyl-pyridin-3-yl)-2,3-dihydro-1H-pyrido[3,4-b][1,4]oxazin-7-yloxy]-pyrrolidin-1-yl}-methanone]
– | 337 | 50 | 6 | COc1ncc(N2CCOc3cnc(O[C@H]4CCN(C(=O)c5cn(C)cn5)C4)cc32)cc1F [Example F3, {(S)-3-[1-(5-Fluoro-6-methoxy-pyridin-3-yl)-2,3-dihydro-1H-pyrido[3,4-b][1,4]oxazin-7-yloxy]-pyrrolidin-1-yl}-(1-methyl-1H-imidazol-4-yl)-methanone]

Further lines, the compound ahead of its results:

Compound | IC50 [1] [nM] | IC50 [2] [nM] | IC50 [3] [nM] | IC50 [4] [nM]
[2H]C1([2H])COc2ccc(O[C@H]3CCN(C(=O)C4CCOCC4)C3)cc2N1c1cnc(OC)c(C)c1 (single isomer, unassigned) [Q] | 37 | 1140 | 145 | 14
Cc1cc(N2CCOc3ccc(O[C@H]4CCN(c5ccccn5)C4)cc32)cnc1S(C)(=O)=O [M, 4-(6-Methanesulfonyl-5-methyl-pyridin-3-yl)-6-((S)-1-pyridin-2-yl-pyrrolidin-3-yloxy)-3,4-dihydro-2H-benzo[1,4]oxazine] | – | 304 | – | 6
Cc1cc(N2CCOc3ccc(O[C@H]4CCN(c5ncccn5)C4)cc32)cnc1S(C)(=O)=O [N, 4-(6-Methanesulfonyl-5-methyl-pyridin-3-yl)-6-((S)-1-pyrimidin-2-yl-pyrrolidin-3-yloxy)-3,4-dihydro-2H-benzo[1,4]oxazine] | – | 838 | – | 12
COc1ncc(N2CCOc3ccc(O[C@H]4CCN(CC5CCN(C)CC5)C4)cc32)cc1C#N [P, 2-Methoxy-5-{6-[(S)-1-(1-methyl-piperidin-4-ylmethyl)-pyrrolidin-3-yloxy]-2,3-dihydro-benzo[1,4]oxazin-4-yl}-nicotinonitrile] | – | 954 | – | 72
COc1ncc(N2CCOc3ccc(O[C@H]4CCN(C(=O)[C@H]5CC[C@H](O)CC5)C4)cc32)cc1C#N [R, 5-{6-[(S)-1-(4-Hydroxy-cyclohexanecarbonyl)-pyrrolidin-3-yloxy]-2,3-dihydro-benzo[1,4]oxazin-4-yl}-2-methoxy-nicotinonitrile] | – | 602 | – | 11
COc1ncc(N2CCOc3ccc(O[C@H]4CCN(C(=O)Cc5ccncc5)C4)cc32)cc1C#N [S, 2-Methoxy-5-{6-[(S)-1-(2-pyridin-4-yl-acetyl)-pyrrolidin-3-yloxy]-2,3-dihydro-benzo[1,4]oxazin-4-yl}-nicotinonitrile] | – | 612 | – | 36
COc1ncc(N2CCOc3ccc(O[C@H]4CCN(C(=O)c5cn(C)cn5)C4)cc32)cc1N [T, {(S)-3-[4-(5-Amino-6-methoxy-pyridin-3-yl)-3,4-dihydro-2H-benzo[1,4]oxazin-6-yloxy]-pyrrolidin-1-yl}-(1-methyl-1H-imidazol-4-yl)-methanone] | – | 1880 | – | 76
COc1ncc(N2CCOc3ccc(O[C@H]4CCN(C(=O)c5cn(C)cn5)C4)cc32)cc1NS(C)(=O)=O [U, N-(2-Methoxy-5-{6-[(S)-1-(1-methyl-1H-imidazole-4-carbonyl)-pyrrolidin-3-yloxy]-2,3-dihydro-benzo[1,4]oxazin-4-yl}-pyridin-3-yl)-methanesulfonamide] | – | 192 | – | 15
COc1ncc(N2CCOc3ccc(O[C@H]4CCN(C(=O)C5CCS(=O)(=O)CC5)C4)c(C)c32)cc1C [V, (1,1-Dioxo-hexahydro-1lambda*6*-thiopyran-4-yl)-{(S)-3-[4-(6-methoxy-5-methyl-pyridin-3-yl)-5-methyl-3,4-dihydro-2H-benzo[1,4]oxazin-6-yloxy]-pyrrolidin-1-yl}-methanone] | – | 3200 | – | 79
Cc1cc(N2CCOc3ccc(O[C@H]4CCN(C(=O)C5CCOCC5)C4)c(C)c32)cnc1S(C)(=O)=O [W, {(S)-3-[4-(6-Methanesulfonyl-5-methyl-pyridin-3-yl)-5-methyl-3,4-dihydro-2H-benzo[1,4]oxazin-6-yloxy]-pyrrolidin-1-yl}-(tetrahydro-pyran-4-yl)-methanone] | – | 2980 | – | 56
COc1ncc(N2CCOc3ccc(O[C@H]4CCN(C(=O)C5CCS(=O)(=O)CC5)C4)c(C)c32)cc1C(F)F [X, {(S)-3-[4-(5-Difluoromethyl-6-methoxy-pyridin-3-yl)-5-methyl-3,4-dihydro-2H-benzo[1,4]oxazin-6-yloxy]-pyrrolidin-1-yl}-(1,1-dioxo-hexahydro-1lambda*6*-thiopyran-4-yl)-methanone] | – | 3580 | – | 61
